pIC50: −log10 of the molar value. Like-named read-outs stand apart in the source and are kept apart here.

IC50 data for 31 molecules are collected here from patent US20020127605A1 (priority 2000, published 2002).

In assay [1] the target is T1, recombinant rat CyPA-GST fusion protein (Rattus norvegicus, UniProt P10111).
T1 construct: made in house; host or cells: E. coli BL21
Put plainly: Rotamase (prolyl peptidyl cis-trans isomerase) inhibition, chymotrypsin-coupled cuvette assay. Format: biochemical. From the text:
A number of substrates for rotamase are known in the art or can be derived from those known. Typically, the substrate contacts a sample containing a protein with rotamase activity and the conversion of the substrate is detected after a period of time. The method for detecting conversion of the substrate will vary with the particular substrate chosen. One method has been termed the Ki test (See Harding, et al., Nature, 341:758-760 (1989). The cis-trans isomerization of an alanine-proline bond in a model substrate, N-succinyl-Ala-Ala-Pro-Phe-p-nitroanilide, is monitored spectrophotometrically in a chymotrypsin-coupled assay. The action of chymotrypsin releases p-nitroaniline from only the trans form of the substrate. The amount of p-nitroaniline can be monitored in a spectrophotometer, for example. Other methods of detecting the presence of p-nitroaniline can also be used. The inhibition of this reaction caused by different concentrations of inhibitor is determined and the data are analyzed as a change in first-order rate constant as a function of inhibitor concentration, which yields the Ki value.
The following were added to a plastic cuvette: […] of ice cold assay buffer (25 mM HEPES, pH 7.8, 100 mM NaCl), 10 μL of CyP A (2.5 μM in 10 mM Tris-Cl pH 7.5, 100 mM NaCl, 1 mM dithiothreitol), 25 μL of chymotrypsin (50 mg/ml in 1 mM HCl), and 10 μL of test compound, at various concentrations, in dimethyl sulfoxide. The reaction was initiated by the addition of 5 μL of substrate (succinyl-Ala-Phe-Pro-Phe-para-nitroanilide, 5 mg/mL in 470 mM LiCl in trifluoroethanol). The absorbance at 390 nm versus time was monitored for 90 seconds using a spectrophotometer and the rate constants were determined from the absorbance versus time data files.
The IC50 values that were obtained for representative compounds in the following Table I refer to the concentration that inhibits 50% of the rotamase activity in a sample. […] The Cyclophilin utilized was a recombinant rat CyPA-GST fusion protein: CypA was amplified from rat brain cDNA using standard PCR methods, primed with the following sequences: 5′ CCCCCCGGGAGTCAACCCCACCGTGTTCTTCGA 3′ and 5′ GGAGATCTAGAGTTGTCCACAGTCGGAGATGGT 3′. The resulting fragment (573 base pairs) was cloned into pCRII and amplified. The CyP sequence was cut out with Smal and EcoRl and cloned into the Smal/EcoRl sites in pGEX2TK (Pharmacia). This plasmid was transformed into BL21 E. coli cells for expression of the GST-CyPA fusion protein.

Assay [2] has as its target human recombinant CyPA (Homo sapiens, UniProt P62937). Put plainly: Semiautomated microtiter plate assay of rotamase activity inhibition. It counts as biochemical. The following applies: 30 minute preincubation at 4° C., read-out: IC50 (rotamase inhibition, modified plate reader assay). The protocol: Semiautomated Assay of Rotamase Activity Inhibition: Rotamase inhibition was determined using a semiautomated microtiter plate assay modification of the above described assay [see Küillertz et al., Clin. Chem. 44, 502-508 (1998)]. All dilutions of CyPA, peptide substrate, and chymotrypsin were made in 35 mM ice-cold HEPES buffer. Fifty μL of CyPA solution were added to 50 μL of peptide substrate solution (Phe-Pro-Phe p-nitroanilide, 0.16 mg/ml) in a glass microtiter well plate (the concentration of human recombinant CyP being adjusted so that the reaction rate is increased by a factor of 3 as compared to an uncatalyzed control reaction wherein the peptide substrate is degraded by chymotrypsin alone, in the absence of CyPA and test compound). Using a Beckman Multimek™ 96 automated 96-channel pipettor, 5 μL of test compound solution, or a DMSO blank, were added to each well for a 30 minute preincubation at 4° C. One hundred μL of chymotrypsin solution (1 mg/mL) were added to each well and the absorbance at 390 nm versus time was monitored for 9-10 minutes using a BioRad Ultramark plate reader maintained at 4° C. and the rate constants were determined from the absorbance versus time data files. The cyclophilin utilized was a human recombinant CyPA [Yoo et al., J. Mol. Biol., 269 (1997) 780-95].
IC50 values which were obtained for representative compounds using this modified plate reader assay of rotamase inhibition are given in the following Table II: […]

Where [3] appears, read: recombinant rat CyPA-GST fusion protein, values without asterisk, read-out: IC50 (rotamase activity).

T1 sequence (P10111 2-164): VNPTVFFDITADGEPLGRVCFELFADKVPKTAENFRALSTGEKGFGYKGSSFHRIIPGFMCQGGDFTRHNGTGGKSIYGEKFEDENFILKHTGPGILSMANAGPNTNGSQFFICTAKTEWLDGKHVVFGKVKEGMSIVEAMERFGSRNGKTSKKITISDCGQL
Sequence of human recombinant CyPA (P62937 whole entry): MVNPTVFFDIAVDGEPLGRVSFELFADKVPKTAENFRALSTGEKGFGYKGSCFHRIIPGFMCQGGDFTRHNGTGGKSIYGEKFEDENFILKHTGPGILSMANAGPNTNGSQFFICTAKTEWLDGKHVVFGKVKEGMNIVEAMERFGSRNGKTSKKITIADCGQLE

On to `O=C(Nc1cc(Cl)cc(Cl)c1)Nc1cccc(N(S(=O)(=O)c2cc(Cl)cc(Cl)c2)S(=O)(=O)c2cc(Cl)cc(Cl)c2)c1` [Compound 7], for which, in assay [1], the pIC50 (usually −log10 of the IC50, conventionally taken in molar units) was 5.91.

Take `O=C(Nc1cc(Cl)cc(Cl)c1)[C@@H]1CC[C@H](NC(=S)Nc2cc(Cl)cc(Cl)c2)C1` [Compound 17]: in assay [1], the negative-log IC50 (pIC50) is 6.07. The same measure, in the same setting: with `O=C(Nc1cccc(Oc2ccccc2)c1)Nc1cc(C(F)(F)F)cc(C(F)(F)F)c1` [Compound 26] the figure was 5.81.

For `O=C(Nc1cc(Cl)cc(Cl)c1)Nc1ccccc1NC(=O)Nc1cc(Cl)cc(Cl)c1` [Compound 27], the pIC50 in assay [1] was 6.18. For `COc1ccc(S(=O)(=O)N(c2cccc(N(S(=O)(=O)c3cc(Cl)cc(Cl)c3)S(=O)(=O)c3cc(Cl)cc(Cl)c3)c2)S(=O)(=O)c2ccc(OC)cc2)cc1` [Compound 10, (3-{Bis[(3,5-dichlorolphenyl)sulfonyl]amino}phenyl)bis[(4-methoxyphenyl)sulfonyl]amine], the pIC50 in assay [1] (setting [3]) is 6.14. Turning to `O=C(CCCCc1ccccc1)Nc1cccc(C(=O)NNC(=S)NC23CC4CC(CC(C4)C2)C3)c1` [Compound 41, 1-[(6-Phenyl-1-aza-2-oxo)hexyl]-3-{[(adamant-1-yl)-1-oxo-2,3,5-triaza-4-thio]pentyl}-benzene], the pIC50 in assay [2] was 5.28. Regarding `O=C(CCCCc1ccccc1)Nc1cccc(NC(=O)CC(=O)Nc2ccc(Cl)c(Cl)c2)c1` [Compound 42, 1-[(6-Phenyl-1-aza-2-oxo)hexyl]-3-{[5-(3,4-dichlorophenyl)-1,5-diaza-2,4-oxo]pentyl}-benzene], the pIC50 in assay [2] is 5.22. The same measure, in the same setting: in the case of “L-N-[3-(6-Phenylhexanoylamino)benzoyl]proline 3,4-dichlorobenzamide [Compound 36]” it was 5.04. For the molecule `O=C(COc1cccc(NC(=O)c2cc(Cl)cc(Cl)c2)c1)Nc1cc(Cl)cc(Cl)c1` [Compound 24, N-(3,5-dichlorophenyl)-2-{3-[(3,5-dichlorolphenyl)carbonylamino]phenoxy}ethanamide], the pIC50 in assay [1] (setting [3]) was 6.04. On the same count and under the same terms, with `O=C(Nc1cccc(OS(=O)(=O)c2c(F)c(F)c(F)c(F)c2F)c1)c1cc(Cl)cc(Cl)c1` [Compound 25, 3-[(3,5-dichlorophenyl)carbonylamino]phenyl 2,3,4,5,6-penta-fluorobenzenesulfonate] the figure was 6.02; with “bis[(3,5-dichlorophenyl)sulfonyl](3-{[(naphthylamino) thioxomethyl]amino}phenyl)amine [Compound 5]”, 6.11; with `O=C(Nc1cc(Cl)cc(Cl)c1)N[C@H]1CC[C@@H](NC(=O)Nc2cc(Cl)cc(Cl)c2)CC1` [Compound 16, cis-[(3,5-Dichlorophenyl)amino]-N-(4-{[(3,5-dichlorolphenyl)amino]carbonylamino}cyclohexyl)formamide], 5.82. As for `O=C(CCCCc1ccccc1)Nc1cccc(S(=O)(=O)NC(=S)Nc2ccc(Cl)c(Cl)c2)c1` [Compound 34A], the pIC50 in assay [2] is 5.33. On the same count and under the same terms, in the case of `O=C(CCCCc1ccccc1)Nc1cccc(S(=O)(=O)NNC(=S)Nc2ccc(Cl)c(Cl)c2)c1` [Compound 35] it was 6.43.

For `COc1ccc(S(=O)(=O)N(c2cccc(NC(=O)Nc3cc(Cl)cc(Cl)c3)c2)S(=O)(=O)c2ccc(C)cc2)cc1` [Compound 1, [(3,5-dichlorophenyl)amino]-N-(3-{[(4-methoxylihenyl)sulfonyl][(4-methylphenyl)sulfonyl]amino}phenyl)formamide], the pIC50 in assay [1] (setting [3]) was 6.79. On to `O=C(CCCCCc1cccc(C(F)(F)F)c1)Nc1cccc(S(=O)(=O)NC(=S)Nc2ccc(Cl)c(Cl)c2)c1` [Compound 45], for which the pIC50 in assay [2] was 6.89. As for `S=C(Nc1cc(Cl)cc(Cl)c1)NC1CCCCC1NC(=S)Nc1cc(Cl)cc(Cl)c1` (stereo not shown) [Compound 15, [(3,5-dichlorophenyl)amino]{[2-({[(3,5-dichlorophenyl)amino]thioxomethyl}amino)cyclohexyl]amino}methane-1-thione], in assay [1] (setting [3]), the pIC50 is 6.21.

In the case of `COc1ccc(S(=O)(=O)N(c2cccc(NC(=O)c3cc(Cl)cc(Cl)c3)c2)S(=O)(=O)c2ccc(C)cc2)cc1` [Compound 3], the pIC50 in assay [1] is 6.02. Take `S=C(Nc1cc(Cl)cc(Cl)c1)Nc1ccccc1NC(=S)Nc1cc(Cl)cc(Cl)c1` [Compound 28, [(3,5-dichlorophenyl)amino]{[2-({[(3,5-dichlorophenyl)amino]thioxomethyl}amino)phenyl]amino}methane-1-thione]: in assay [1] (setting [3]), the pIC50 is 5.96.

For `O=C(CCCCc1cccs1)Nc1cccc(C(=O)NNC(=S)Nc2ccc(Cl)c(Cl)c2)c1` [Compound 38, 1-{[1-Aza-2-oxo-6-(thien-2-yl)]hexyl}-3-{[5-(3,4-dichlorophenyl)-1-oxo-2,3,5-triaza-4-thio]pentyl}benzene], the pIC50 in assay [2] is 6.17. The same measure, in the same setting: in the case of `O=C(CCCCc1ccccc1)Nc1cccc(-c2nnc(Nc3ccc(Cl)c(Cl)c3)o2)c1` [Compound 40B, 5-Phenyl-pentanoic acid {3-[5-(3,4-dichloro-phenylamino)-[1,3,4]oxadiazol-2-yl]-phenyl}-amide] it was 6.05.

For the molecule `O=C(Nc1ccccc1NC(=O)c1ccc(I)cc1)c1ccc(I)cc1` [Compound 29], the pIC50 in assay [1] is 6.03. Same read-out and setting: in the case of `O=C(Nc1cccc(N(S(=O)(=O)c2cc(Cl)cc(Cl)c2)S(=O)(=O)c2cc(Cl)cc(Cl)c2)c1)Nc1c(Cl)cccc1Cl` [Compound 6] it was 6.00. On to `FC(F)(F)c1cc(NC(=S)NC2CCCCC2NC(=S)Nc2cc(C(F)(F)F)cc(C(F)(F)F)c2)cc(C(F)(F)F)c1` (stereo not shown) [Compound 12, {[3,5-bis(trifluoromethyl)phenyl]amino}({2-[({[3,5-bis(trifluoromethyl)phenyl]amino}thioxomethyl)amino]cyclohexyl}amino)methane-1-thione], for which the pIC50 in assay [1] (setting [3]) was 6.12. On the same count and under the same terms, in the case of `O=C(NNC(=S)Nc1cc(Cl)cc(Cl)c1)c1cccc(OCc2cc(C(F)(F)F)cc(C(F)(F)F)c2)c1` [Compound 23] it was 6.05; in that of `S=C(Nc1cc(Cl)cc(Cl)c1)Nc1cccc(C=C(c2ccc(Cl)cc2)c2ccc(Cl)cc2)c1` [Compound 20], 6.73. The same measure, in the same setting: with `S=C(Nc1ccc(Cl)c(Cl)c1)NC1CCCCC1NC(=S)Nc1ccc(Cl)c(Cl)c1` (stereo not shown) [Compound 14, [(3,4-dichlorophenyl)amino]{[2-({[(3,4-dichlorophenyl)amino]thioxomethyl}amino)cyclohexyl]amino}methane-1-thione] the figure was 6.10.

`COc1ccc(S(=O)(=O)N(c2cccc(N(S(=O)(=O)c3cc(Cl)cc(Cl)c3)S(=O)(=O)c3cc(Cl)cc(Cl)c3)c2)S(=O)(=O)c2ccc(C)cc2)cc1` [Compound 4, (3-{bis[(3,5-dichlorophenyl)sulfonyl]amino}phenyl)[(4-methoxy-phenyl)sulfonyl][(4-methylphenyl)sulfonyl]amine]: the pIC50 in assay [1] (setting [3]) is 6.00. Same read-out and setting: with `O=C(Nc1cc(Cl)cc(Cl)c1)[C@H]1CC[C@@H](NC(=S)Nc2cc(Cl)cc(Cl)c2)C1` [Compound 19] the figure was 6.12. Turning to `Cc1ccc(S(=O)(=O)N(c2cccc(NC(=O)Nc3cc(Cl)cc(Cl)c3)c2)S(=O)(=O)c2ccc(C)cc2)cc1` [Compound 2], in assay [1], the pIC50 was 6.83. As for `O=C(Nc1cc(Cl)cc(Cl)c1)[C@@H]1C=C[C@H](NC(=S)Nc2cc(Cl)cc(Cl)c2)C1` [Compound 18, (1S,3R)-N-(3,5-dichlorophenyl)[4-({[(3,5-dichlorolphenyl)amino]thioxomethyl}amino)cyclopent-2-enyl]formamide], in assay [1] (setting [3]), the pIC50 is 6.05.
